Entries after “also recorded” stand apart in the source; their conditions may differ.
Experiments:
[1] = test system: recombinant CHO-K1 cell line, called clone 1, expressing a humanized monoclonal antibody; experiment: CHO fed-batch cultivation with para-, ortho- or meta-Tyr supplementation under Phe limitation conditions; type: cell-based, Chinese Hamster
Experimental: (§1) For all cell culture experiments a recombinant CHO-K1 cell line, called clone 1, expressing a humanized monoclonal antibody was used. The recombinant CHO-K1 cell line was generated using an L-methionine sulfoximine sensitive CHO-K1 host cell line (Lonza, Cologne, Germany). The cells were cultivated in protein free, chemically defined CD-CHO medium (Life Technologies, Darmstadt, Germany) supplemented with 50 μM L-methionine sulfoximine (Sigma Aldrich, Munich, Germany) during seed train cultivation. Seed train cultivation was performed in shake flasks using a humidified incubator, 7% CO2, and 37° C. setting. The cells were splitted every three to four days for subcultivation and culture expansion. For all experiments, cells with identical age in culture (appr. 21 generations) until start of the experiment were used.
(§2) All supplementation experiments were performed using shake flask cultivation systems, chemically defined CD-CHO medium without the selection pressure L-methionine sulfoximine and two appropriate serial continuous applied feeds (feed 1 and feed 2). Recombinant CHO-K1 cells producing a humanized monoclonal antibody were inoculated with 3×10^5 viable cells/mL and cultured for 14 days. CD-CHO base medium was sterile supplemented before inoculation with 0.1 mM, 0.3 mM or 0.4 mM of either ortho-Tyr, meta-Tyr or para-Tyr. Control cultivation with no supplementation of ortho-Tyr, meta-Tyr or para-Tyr was used as reference. Phenylalanine (Phe) non-limitation conditions were realized by increasing concentration of Phe in feed 2.
(§3) For analysis of viable and total cell densities an automated Cedex HiRes system (Roche Diagnostics, Mannheim, Germany) was used. Discrimination of viable and total cell densities were evaluated using the trypan blue exclusion staining method and analyzing more than 10 pictures per sample and day according to the manufacturer's specifications. Viable cell density (VCD) and cell viability were calculated as described in equation 1 (Equ 1) and equation 2 (Equ 2), respectively. Viable cell density=NTrypan blue negative×(10^5 viable cells/ml) (Equ 1) Cell viability=NTrypan blue negative/(NTrypan blue negative+NTrypan blue positive cells)×100% (Equ 2)
(§4) As indicator for overall biomass generation in the process a cumulative cell time integral (CTI) was calculated as followed (Equ 3). Cell time integral=Σ(0.5×(VCDn−1+VCDn)×(tn−tn−1))×(10^5 viable cells×d/ml) (Equ 3)
Lactate dehydrogenase (LDH) activity in the cell-free supernatant was analyzed using a Cobas Integra 400 plus system (Roche Diagnostics, Mannheim, Germany).
(§5) Product titer war either quantified by a Cobas Integra 400 plus system (Roche, Mannheim, Germany) according to the manufacture's protocol or by PorosA HPLC method as described previously (Zeck et al. 2012). The overall specific productivity qP was calculated for the analysis of cell production capacity according to equation 4. qP=(Titern−Titern−1)/(CTIn−CTIn−1)×(pg/(viable cell×d)) (Equ 4) Determination of Peptide Sequence Variants and Identification of Meta- and Ortho-Tyr Sequence Variants with Synthetic Peptides
In concentration screens, a 50% reduction of the […] reduction capacity of CHO cells was observed when supplemented with 0.5 mM meta-Tyr (Gurer-Orhan et al., (2006)). No data or concentration have been reported for ortho-Tyr supplementation in cell cultures to date. Using a dose-dependent cultivation approach, it was aimed to determine the relevance and tolerable concentrations of meta-Tyr and ortho-Tyr on CHO cell growth performance. For this, a CHO cultivation model described in material and methods was supplemented with either 0.1 mM, 0.3 mM or 0.4 mM para-Tyr, ortho-Tyr or meta-Tyr. We used the standard cultivation process with no supplementation as reference, following so-called “control” or “positive control”. Here, Phe will go into limitation by day 10/11.

[2] = test system: recombinant CHO-K1 cell line, called clone 1, expressing a humanized monoclonal antibody; experiment: CHO fed-batch cultivation with para-, ortho- or meta-Tyr supplementation under Phe non-limitation conditions; type: cell-based, Chinese Hamster
Experimental: as §1, §2, §3, §4, §5
In a second approach, the role of meta- and ortho-Tyr supplementation under Phe non-limitation conditions in CHO fed-batch cultivations was analyzed. For that, the amount of Phe in feed 2 was increased to prevent Phe limitation (FIG. 6).

CHO cells = details: cited from earlier work
[3] = 0.1 mM, 0.3 mM or 0.4 mM supplementation

Row | Compound | product concentration (overall productivity, product yield) [1] | specific productivity qP (cell-specific product formation rate) [1] | increase of qP compared to control ([1]; 0.1 mM supplementation) | cumulative CTI (cell time integral, overall biomass production) [1, 3] | maximal VCD versus other cultures [1, 3] | increase of qP compared to control ([1]; 0.3 mM supplementation) | increase of qP compared to control ([1]; 0.4 mM supplementation) | impact on cell viability ([1]; fed-batch CHO cultivation) | specific productivity qP (cell-specific product formation rate) ([1]; listed as Meta-Tyr) | product titer (product yield) [2] | specific productivity qP (cell-specific product formation rate) [2] | increase of qP compared to control ([2]; 0.1 mM supplementation) | CTI versus other cultures [2, 3] | increase of qP compared to control ([2]; 0.3 mM supplementation) | increase of qP compared to control ([2]; 0.4 mM supplementation) | reduction of the MTX reduction capacity of CHO cells (CHO cells; 0.5 mM meta-Tyr) | cell cytotoxicity (CHO cells; meta-Tyr supplementation of CHO cells) | final LDH activity in the supernatant ([1]; compared to control, meta-Tyr and para-Tyr supplementation) | cell viability ([1]; day 14)
1 | N[C@@H](Cc1cccc(O)c1)C(=O)O [meta-Tyr, meta-tyrosine] | does not alter product yield | overall higher specific productivity qP | +5% | decreased cumulative CTI | dose dependent reduced maximal VCD | +26% | +36% | no significant impact | increases cell-specific product formation rate qP | does not alter product yield | overall higher specific productivity qP; also recorded: increases cell-specific product formation rate qP | +3% | dose dependent reduction in CTI | +26% | +28% | 50% | dose-dependent cell cytotoxicity |  | 
2 | NC(Cc1ccccc1O)C(=O)O (stereo not drawn) [ortho-Tyr, ortho-tyrosine, reference compound] | does not alter product yield |  |  |  |  |  |  |  |  | does not alter product yield |  |  |  |  |  |  |  | higher final LDH activity in the supernatant | less than 60%
